Reference: patent US11192894B2, “Cell impermeable coelenterazine analogues” (PROMEGA CORPORATION, priority 2016, dated 2021)

target: purified NANOLUC® Luciferase (Oplophorus gracilirostris, UniProt Q9GV45, A31E/A60N/A81I/F95D/I117V/K70R/L54V/L99Q/M102K/N193R/P142E/Q151K/Q38R/Q45L/V71I/Y165I); format: biochemical; details: relative value, furimazine set to 1; purified NanoLuc; initial light output three minutes after substrate addition
Description: Each compound to be screened was dissolved in DMSO (5 mM) and then further diluted to 100 uM in NANO-GLO® Luciferase Assay Buffer. Each diluted substrate was then combined in equal volumes with purified NANOLUC® Luciferase diluted into CO2 independent media+10% FBS. Initial light output for each substrate was measured in a GloMax®-Multi+ luminometer three minutes after substrate addition and then at five minute intervals as a means to determine signal half-life. […] Km was calculated using GraphPad Prism using non linear Michaelis-Menten regression.

Sequence of purified NANOLUC® Luciferase (Q9GV45 28-196 with tags or gaps with the stated changes limits assumed): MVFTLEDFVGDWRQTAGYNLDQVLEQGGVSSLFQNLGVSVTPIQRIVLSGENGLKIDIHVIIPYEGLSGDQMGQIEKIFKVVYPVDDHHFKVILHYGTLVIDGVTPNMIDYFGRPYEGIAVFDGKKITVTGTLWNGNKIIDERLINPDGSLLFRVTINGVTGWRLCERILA

First: O=c1c(Cc2ccc(OCCCCCCS(=O)(=O)OCC(Cl)(Cl)Cl)c(Cl)c2)nc2c(Cc3ccccc3)[nH]c(-c3ccccc3)cn1-2 [JRW-0665, 2,2,2-trichloroethyl 6-(4-((8-benzyl-3-oxo-6-phenyl-3,7-dihydroimidazo[1,2-a]pyrazin-2-yl)methyl)-2-chlorophenoxy)hexane-1-sulfonate]
Second: O=c1c(Cc2ccc(OCCCCCCCCS(=O)(=O)[O-])c(Cl)c2)nc2c(Cc3ccccc3)[nH]c(-c3ccccc3)cn1-2.[Na+] [JRW-0761, sodium 8-(4-((8-benzyl-3-oxo-6-phenyl-3,7-dihydroimidazo[1,2-a]pyrazin-2-yl)methyl)-2-chlorophenoxy)octane-1-sulfonate]
The “RLU at 100 uM” value of the first is lower: 0.0055 for the first, 0.075 for the second.

Going from O=c1c(Cc2cccc(OCCCCCCBr)c2)nc2c(Cc3ccccc3)[nH]c(-c3ccccc3)cn1-2 [JRW-0692, 8-benzyl-2-(3-((6-bromohexyl)oxy)benzyl)-6-phenylimidazo[1,2-a]pyrazin-3(7H)-one] to O=C(O)CCCCCCCOc1cccc(Cc2nc3c(Cc4ccccc4)[nH]c(-c4ccccc4)cn-3c2=O)c1 [JRW-0722, 8-(3-((8-benzyl-3-oxo-6-phenyl-3,7-dihydroimidazo[1,2-a]pyrazin-2-yl)methyl)phenoxy)octanoic acid], the “RLU at 100 uM” value rises from 0.0025 to 0.023.

Going from O=c1c(Cc2ccc(OCCCCCCCCCCS(=O)(=O)[O-])c(Cl)c2)nc2c(Cc3ccccc3)[nH]c(-c3ccccc3)cn1-2.[Na+] [JRW-0765, sodium 10-(4-((8-benzyl-3-oxo-6-phenyl-3,7-dihydroimidazo[1,2-a]pyrazin-2-yl)methyl)-2-chlorophenoxy)decane-1-sulfonate] to O=c1c(Cc2ccc(Cl)c(OCCCCCCS(=O)(=O)[O-])c2)nc2c(Cc3ccccc3)[nH]c(-c3ccccc3)cn1-2.[Na+] [JRW-0766, sodium 6-(5-((8-benzyl-3-oxo-6-phenyl-3,7-dihydroimidazo[1,2-a]pyrazin-2-yl)methyl)-2-chlorophenoxy)hexane-1-sulfonate], the “RLU at 100 uM” value rises from 0.011 to 0.015.

Compared with CC(=O)N[C@@H](CC(=O)O)C(=O)N[C@@H](CC(=O)O)C(=O)N[C@@H](CC(=O)O)C(=O)NCCCCCCOc1ccc(Cc2nc3c(Cc4ccccc4)[nH]c(-c4ccccc4)cn-3c2=O)cc1F [JRW-0806, (S)-3-acetamido-4-(((S)-1-(((S)-1-((6-(4-((8-benzyl-3-oxo-6-phenyl-3,7-dihydroimidazo[1,2-a]pyrazin-2-yl)methyl)-2-fluorophenoxy)hexyl)amino)-3-carboxy-1-oxopropan-2-yl)amino)-3-carboxy-1-oxopropan-2-yl)amino)-4-oxobutanoic acid], CC(=O)N[C@@H](CC(=O)O)C(=O)N[C@@H](CC(=O)O)C(=O)N[C@@H](CC(=O)O)C(=O)NCCCCCCOc1cccc(Cc2nc3c(Cc4ccccc4)[nH]c(-c4ccccc4)cn-3c2=O)c1 [JRW-0741, (S)-3-acetamido-4-(((S)-1-(((S)-1-((6-(3-((8-benzyl-3-oxo-6-phenyl-3,7-dihydroimidazo[1,2-a]pyrazin-2-yl)methyl)phenoxy)hexyl)amino)-3-carboxy-1-oxopropan-2-yl)amino)-3-carboxy-1-oxopropan-2-yl)amino)-4-oxobutanoic acid] is lower in “RLU at 100 uM” value: 0.021 for the first, 0.0057 for the second.

Compared with NCCCCCCOc1ccc(Cc2nc3c(Cc4ccccc4)[nH]c(-c4ccccc4)cn-3c2=O)cc1F [JRW-0801, 2-(4-((6-aminohexyl)oxy)-3-fluorobenzyl)-8-benzyl-6-phenylimidazo[1,2-a]pyrazin-3(7H)-one], O=c1c(Cc2cc(F)c(OCCCCCCS(=O)(=O)[O-])c(F)c2)nc2c(Cc3ccccc3)[nH]c(-c3ccccc3)cn1-2.[Na+] [JRW-0771, sodium 6-(4-((8-benzyl-3-oxo-6-phenyl-3,7-dihydroimidazo[1,2-a]pyrazin-2-yl)methyl)-2,6-difluorophenoxy)hexane-1-sulfonate] is higher in “RLU at 100 uM” value: 0.0073 for the first, 0.15 for the second.

First: O=C(O)CCCOc1cccc(Cc2nc3c(Cc4ccccc4)[nH]c(-c4ccccc4)cn-3c2=O)c1 [JRW-0716, 4-(3-((8-benzyl-3-oxo-6-phenyl-3,7-dihydroimidazo[1,2-a]pyrazin-2-yl)methyl)phenoxy)butanoic acid]
Second: CC(C)(C)OC(=O)CCCOc1cccc(Cc2nc3c(Cc4ccccc4)[nH]c(-c4ccccc4)cn-3c2=O)c1 [JRW-0714, tert-butyl 4-(3-((8-benzyl-3-oxo-6-phenyl-3,7-dihydroimidazo[1,2-a]pyrazin-2-yl)methyl)phenoxy)butanoate]
The “RLU at 100 uM” value of the first is higher: 0.0022 for the first, 0.0013 for the second.

Going from CC(C)(C)OC(=O)CCCCCOc1ccc(Cc2nc3c(Cc4ccccc4)[nH]c(-c4ccccc4)cn-3c2=O)cc1Cl [JRW-0725, tert-butyl 6-(4-((8-benzyl-3-oxo-6-phenyl-3,7-dihydroimidazo[1,2-a]pyrazin-2-yl)methyl)-2-chlorophenoxy)hexanoate] to CC(C)(C)OC(=O)CCCCCOc1cccc(Cc2nc3c(Cc4ccccc4)[nH]c(-c4ccccc4)cn-3c2=O)c1 [JRW-0682, tert-butyl 6-(3-((8-benzyl-3-oxo-6-phenyl-3,7-dihydroimidazo[1,2-a]pyrazin-2-yl)methyl)phenoxy)hexanoate], the “RLU at 100 uM” value falls from 0.013 to 0.0024.

Compared with O=c1c(Cc2cccc(OCCCS(=O)(=O)[O-])c2)nc2c(Cc3ccccc3)[nH]c(-c3ccccc3)cn1-2.[Na+] [JRW-0713, sodium 3-(3-((8-benzyl-3-oxo-6-phenyl-3,7-dihydroimidazo[1,2-a]pyrazin-2-yl)methyl)phenoxy)propane-1-sulfonate], CC(C)(C)OC(=O)CCCCCCCOc1cccc(Cc2nc3c(Cc4ccccc4)[nH]c(-c4ccccc4)cn-3c2=O)c1 [JRW-0719, tert-butyl 8-(3-((8-benzyl-3-oxo-6-phenyl-3,7-dihydroimidazo[1,2-a]pyrazin-2-yl)methyl)phenoxy)octanoate] is higher in “RLU at 100 uM” value: 0.00081 for the first, 0.0011 for the second.

First: O=c1c(Cc2ccc(OCCCCCCS(=O)(=O)O)c(Cl)c2)nc2c(Cc3ccccc3)[nH]c(-c3cccc(O)c3)cn1-2 [JRW-0805, 6-(4-((8-benzyl-6-(3-hydroxyphenyl)-3-oxo-3,7-dihydroimidazo[1,2-a]pyrazin-2-yl)methyl)-2-chlorophenoxy)hexane-1-sulfonic acid]
Second: O=C(O)c1ccc(-c2cn3c(=O)c(Cc4ccco4)nc-3c(Cc3ccccc3)[nH]2)cc1 [JRW-0790, 4-(8-benzyl-2-(furan-2-ylmethyl)-3-oxo-3,7-dihydroimidazo[1,2-a]pyrazin-6-yl)benzoic acid]
The “RLU at 100 uM” value of the first is higher: 0.17 for the first, 0.0029 for the second.

In the case of CC(C)(C)OC(=O)c1cccc(-c2cn3c(=O)c(Cc4ccco4)nc-3c(Cc3ccccc3)[nH]2)c1 [JRW-0755, tert-butyl 3-(8-benzyl-2-(furan-2-ylmethyl)-3-oxo-3,7-dihydroimidazo[1,2-a]pyrazin-6-yl)benzoate], the “RLU at 100 uM” value is reported as 0.000043.
